We go through 26 compounds from patent US8624040B2, “Substituted hydroxamic acids and uses thereof” (Millennium Pharmaceuticals, Inc., priority 2009, dated 2014).

Each structure is given as a SMILES string.

This assay concerns the target T1, purified human HDAC6 (Homo sapiens, UniProt Q9UBN7).
T1 construct: purchased BPS Bioscience 5006
T1 sequence (Q9UBN7 1-1215): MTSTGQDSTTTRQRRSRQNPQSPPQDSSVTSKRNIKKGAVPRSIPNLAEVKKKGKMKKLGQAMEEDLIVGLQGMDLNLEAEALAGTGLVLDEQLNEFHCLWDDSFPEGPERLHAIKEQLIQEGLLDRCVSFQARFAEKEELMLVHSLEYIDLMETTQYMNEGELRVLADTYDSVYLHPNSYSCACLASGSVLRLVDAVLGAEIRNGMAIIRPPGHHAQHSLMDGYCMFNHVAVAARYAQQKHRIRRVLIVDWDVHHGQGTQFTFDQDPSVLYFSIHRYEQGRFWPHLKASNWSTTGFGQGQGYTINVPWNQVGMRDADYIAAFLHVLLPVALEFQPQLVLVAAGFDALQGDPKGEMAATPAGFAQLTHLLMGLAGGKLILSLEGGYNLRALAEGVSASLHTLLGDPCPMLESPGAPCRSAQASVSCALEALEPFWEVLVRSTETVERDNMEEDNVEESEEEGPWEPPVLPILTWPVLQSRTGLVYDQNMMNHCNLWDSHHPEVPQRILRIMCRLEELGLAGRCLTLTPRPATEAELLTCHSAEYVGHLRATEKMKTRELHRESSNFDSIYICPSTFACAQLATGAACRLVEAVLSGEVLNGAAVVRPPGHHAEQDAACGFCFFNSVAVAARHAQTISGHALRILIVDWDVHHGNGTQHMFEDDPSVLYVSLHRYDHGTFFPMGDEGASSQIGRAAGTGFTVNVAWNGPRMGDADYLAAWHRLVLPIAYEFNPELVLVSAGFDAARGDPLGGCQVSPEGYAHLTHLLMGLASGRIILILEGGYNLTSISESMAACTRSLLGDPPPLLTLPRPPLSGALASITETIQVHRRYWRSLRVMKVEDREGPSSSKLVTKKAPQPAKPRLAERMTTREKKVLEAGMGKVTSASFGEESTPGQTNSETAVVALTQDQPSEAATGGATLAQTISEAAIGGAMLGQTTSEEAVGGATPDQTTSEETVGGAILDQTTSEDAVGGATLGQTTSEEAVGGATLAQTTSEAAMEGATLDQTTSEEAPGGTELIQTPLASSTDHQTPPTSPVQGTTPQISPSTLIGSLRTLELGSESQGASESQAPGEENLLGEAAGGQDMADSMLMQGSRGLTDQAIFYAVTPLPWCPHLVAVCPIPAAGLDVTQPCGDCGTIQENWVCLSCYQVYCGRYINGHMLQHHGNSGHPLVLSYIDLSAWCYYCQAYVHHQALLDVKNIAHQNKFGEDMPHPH
Kind of assay: HDAC6 Enzyme Assay. Format: biochemical. Particulars: enzyme inhibition, substrate Ac-Arg-Gly-Lys(Ac)-AMC, 1 hour at 30° C. How it is done:
To measure the inhibition of HDAC6 activity, purified human HDAC6 (BPS Bioscience; Cat. No. 5006) is incubated with substrate Ac-Arg-Gly-Lys(Ac)-AMC peptide (Bachem Biosciences; Cat. No. I-1925) for 1 hour at 30° C. in the presence of test compounds or vehicle DMSO control. The reaction is stopped with the HDAC inhibitor trichostatin A (Sigma; Cat. No. T8552) and the amount of Arg-Gly-Lys-AMC generated is quantitated by digestion with trypsin (Sigma; Cat. No. T1426) and subsequent measurement of the amount of AMC released using a fluorescent plate reader (Pherastar; BMG Technologies) set at Ex 340 nm and Em 460 nm. Concentration response curves are generated by calculating the fluorescence increase in test compound-treated samples relative to DMSO-treated controls, and enzyme inhibition (IC50) values are determined from those curves.

A word on the IC50: it is the concentration at which inhibition is half-maximal. Read a low IC50 as greater potency in that assay. For the compound `O=C(NO)c1cc2c(s1)CN(C(=O)c1cc(F)cc(F)c1)CC2` [Compound 140, 6-(3,5-difluorobenzoyl)-N-hydroxy-4,5,6,7-tetrahydrothieno[2,3-c]pyridine-2-carboxamide], the IC50 was < 50 nM. `Cc1ncc(C(=O)N2CCc3cc(C(=O)NO)sc3C2)c(-c2ccccc2)n1` [Compound 48, N-hydroxy-6-(2-methyl-4-phenylpyrimidine-5-carbonyl)-4,5,6,7-tetrahydrothieno[2,3-c]pyridine-2-carboxamide] came in with an IC50 of 50 to 100 nM. `Cn1cccc1C(=O)N1CCc2cc(C(=O)NO)sc2C1` [Compound 116, N-hydroxy-6-[(1-methyl-1H-pyrrol-2-yl)carbonyl]-4,5,6,7-tetrahydrothieno[2,3-c]pyridine-2-carboxamide]: the IC50 is < 50 nM. Take `O=C(NO)c1cc2c(s1)CCN(C(=O)C1CCCCC1)C2` [Compound 31, 5-(cyclohexanecarbonyl)-N-hydroxy-4,5,6,7-tetrahydrothieno[3,2-c]pyridine-2-carboxamide]: the IC50 is < 50 nM. Next, `CC1(C(=O)N2CCc3sc(C(=O)NO)cc3C2)CCCCC1` [Compound 28, N-hydroxy-5-(1-methylcyclohexanecarbonyl)-4,5,6,7-tetrahydrothieno[3,2-c]pyridine-2-carboxamide]: < 50 nM; `O=C(NO)c1cc2c(s1)CN(C(=O)c1cc3ccccc3s1)C2` [Compound 231, 5-(1-benzothien-2-ylcarbonyl)-N-hydroxy-5,6-dihydro-4H-thieno[2,3-c]pyrrole-2-carboxamide]: < 50 nM.

As for `CC1(C)CN(C(=O)c2ccccc2Cl)Cc2cc(C(=O)NO)sc21` [Compound 234, 5-(2-chlorobenzoyl)-N-hydroxy-7,7-dimethyl-4,5,6,7-tetrahydrothieno[3,2-c]pyridine-2-carboxamide], the IC50 was > 1000 nM. The result for `O=C(NO)c1cc2c(s1)CCN(S(=O)(=O)c1ccc(C(F)(F)F)cc1)C2` [Compound 34, N-hydroxy-5-{[4-(trifluoromethyl)phenyl]sulfonyl}-4,5,6,7-tetrahydrothieno[3,2-c]pyridine-2-carboxamide] reads < 50 nM. With `Cc1ncsc1C(=O)N1CCc2cc(C(=O)NO)sc2C1` [Compound 98, N-hydroxy-6-[(4-methyl-1,3-thiazol-5-yl)carbonyl]-4,5,6,7-tetrahydrothieno[2,3-c]pyridine-2-carboxamide], the IC50 is < 50 nM. The result for `CC(C)(C)c1ccc(CC(=O)N2CCc3cc(C(=O)NO)sc3C2)cc1` [Compound 188, 6-[(4-tert-butylphenyl)acetyl]-N-hydroxy-4,5,6,7-tetrahydrothieno[2,3-c]pyridine-2-carboxamide] reads < 50 nM; that for `CC1(C)CN(C(=O)c2ccccn2)Cc2cc(C(=O)NO)sc21` [Compound 220, N-hydroxy-7,7-dimethyl-5-(pyridin-2-ylcarbonyl)-4,5,6,7-tetrahydrothieno[3,2-c]pyridine-2-carboxamide], > 1000 nM; that for `Cc1c(C(=O)NO)sc2c1CN(C(=O)c1cc3ccccc3o1)CC2` [Compound 216, 5-(1-benzofuran-2-ylcarbonyl)-N-hydroxy-3-methyl-4,5,6,7-tetrahydrothieno[3,2-c]pyridine-2-carboxamide], 50 to 100 nM. As for `NC(=O)CSc1ccsc1C(=O)N1CCc2cc(C(=O)NO)sc2C1` [Compound 56, 6-({3-[(2-amino-2-oxoethyl)sulfanyl]-2-thienyl}carlbonyl)-N-hydroxy-4,5,6,7-tetrahydrothieno[2,3-c]pyridine-2-carboxamide], the IC50 is > 1000 nM.

Consider `COc1ccc(CN2CCc3cc(C(=O)NO)sc3C2)cc1` [Compound 111, N-hydroxy-6-(4-methoxybenzyl)-4,5,6,7-tetrahydrothieno[2,3-c]pyridine-2-carboxamide], for which the IC50 was > 1000 nM.

`CCc1cc(C(=O)N2CCc3cc(C(=O)NO)sc3C2)n(C)n1` [Compound 186, 6-[(3-ethyl-1-methyl-1H-pyrazol-5-yl)carbonyl]-N-hydroxy-4,5,6,7-tetrahydrothieno[2,3-c]pyridine-2-carboxamide]: the IC50 was < 50 nM. Regarding `O=C(NO)c1cc2c(s1)CN(C(=O)C1CCCCN1S(=O)(=O)c1ccccc1)CC2` (centres unmarked) [Compound 15, N-hydroxy-6-{[1-(phenylsulfonyl)piperidin-2-yl]carbonyl}-4,5,6,7-tetrahydrothieno[2,3-c]pyridine-2-carboxamide], the IC50 is 50 to 100 nM. As for `O=C(NO)c1cc2c(s1)CN(C(=O)c1cccc(-n3cccn3)c1)CC2` [Compound 133, 6-(3-(1H-pyrazol-1-yl)benzoyl)-N-hydroxy-4,5,6,7-tetrahydrothieno[2,3-c]pyridine-2-carboxamide], the IC50 was < 50 nM. Regarding `Cc1noc(C)c1C(=O)N1CCc2cc(C(=O)NO)sc2C1` [Compound 177, 6-[(3,5-dimethylisoxazol-4-yl)carbonyl]-N-hydroxy-4,5,6,7-tetrahydrothieno[2,3-c]pyridine-2-carboxamide], the IC50 was < 50 nM. Regarding `O=C(NO)c1cc2c(s1)CN(C(=O)c1cnn(-c3ccccc3)c1)CC2` [Compound 127, N-hydroxy-6-[(1-phenyl-1H-pyrazol-4-yl)carbonyl]-4,5,6,7-tetrahydrothieno[2,3-c]pyridine-2-carboxamide], the IC50 was < 50 nM. For `CC1(C)CN(C(=O)c2sc3ccccc3c2Cl)Cc2cc(C(=O)NO)sc21` [Compound 192, 5-[(3-chloro-1-benzothien-2-yl)carbonyl]-N-hydroxy-7,7-dimethyl-4,5,6,7-tetrahydrothieno[3,2-c]pyridine-2-carboxamide], the IC50 was > 1000 nM. Consider `Cc1oc(-c2ccccc2)nc1CC(=O)N1CCc2cc(C(=O)NO)sc2C1` [Compound 65, N-hydroxy-6-[(5-methyl-2-phenyl-1,3-oxazol-4-yl)acetyl]-4,5,6,7-tetrahydrothieno[2,3-c]pyridine-2-carboxamide], for which the IC50 is < 50 nM. Next, `CC(=O)Nc1cc(NC(C)=O)cc(C(=O)N2CCc3cc(C(=O)NO)sc3C2)c1` [Compound 131, 6-[3,5-bis(acetylamino)benzoyl]-N-hydroxy-4,5,6,7-tetrahydrothieno[2,3-c]pyridine-2-carboxamide]: < 50 nM. Regarding `O=C(NO)c1cc2c(s1)CN(C(=O)c1[nH]nc3c1CCCC3)CC2` [Compound 8, N-hydroxy-6-(4,5,6,7-tetrahydro-2H-indazol-3-ylcarbonyl)-4,5,6,7-tetrahydrothieno[2,3-c]pyridine-2-carboxamide], the IC50 is < 50 nM. For `Cc1oc(C(C)(C)C)cc1C(=O)N1CCc2cc(C(=O)NO)sc2C1` [Compound 67, 6-(5-tert-butyl-2-methyl-3-furoyl)-N-hydroxy-4,5,6,7-tetrahydrothieno[2,3-c]pyridine-2-carboxamide], the IC50 is < 50 nM. As for `CC(C)(C)C(=O)N1CCc2sc(C(=O)NO)cc2C1` [Compound 26, 5-(2,2-dimethylpropanoyl)-N-hydroxy-4,5,6,7-tetrahydrothieno[3,2-c]pyridine-2-carboxamide], the IC50 is < 50 nM. As to `O=C(NO)c1cc2c(s1)CN(Cc1ccc3c(c1)OCCCO3)CC2` [Compound 22, 6-(3,4-dihydro-2H-1,5-benzodioxepin-7-ylmethyl)-N-hydroxy-4,5,6,7-tetrahydrothieno[2,3-c]pyridine-2-carboxamide], the IC50 was < 50 nM.
